Experimental data taken from patent US10233158B2, “Arylalkyl- and aryloxyalkyl-substituted epithelial sodium channel blocking compounds” (Parion Sciences, Inc., priority 2013, dated 2019).

How the values were obtained:
ENaC = molecular target: T1, ENaC (Canis lupus familiaris, UniProt A0A8I3MKE6+A0A8I3Q679+Q95165); experiment: Inhibition of short-circuit current (ISC) and reversibility, bronchial epithelial monolayers in Ussing chamber, canine cells; format: cell-based; conditions: canine bronchial epithelial cells (CBE); mean ± SD (n)
T1 sequence (A0A8I3Q679 1-649): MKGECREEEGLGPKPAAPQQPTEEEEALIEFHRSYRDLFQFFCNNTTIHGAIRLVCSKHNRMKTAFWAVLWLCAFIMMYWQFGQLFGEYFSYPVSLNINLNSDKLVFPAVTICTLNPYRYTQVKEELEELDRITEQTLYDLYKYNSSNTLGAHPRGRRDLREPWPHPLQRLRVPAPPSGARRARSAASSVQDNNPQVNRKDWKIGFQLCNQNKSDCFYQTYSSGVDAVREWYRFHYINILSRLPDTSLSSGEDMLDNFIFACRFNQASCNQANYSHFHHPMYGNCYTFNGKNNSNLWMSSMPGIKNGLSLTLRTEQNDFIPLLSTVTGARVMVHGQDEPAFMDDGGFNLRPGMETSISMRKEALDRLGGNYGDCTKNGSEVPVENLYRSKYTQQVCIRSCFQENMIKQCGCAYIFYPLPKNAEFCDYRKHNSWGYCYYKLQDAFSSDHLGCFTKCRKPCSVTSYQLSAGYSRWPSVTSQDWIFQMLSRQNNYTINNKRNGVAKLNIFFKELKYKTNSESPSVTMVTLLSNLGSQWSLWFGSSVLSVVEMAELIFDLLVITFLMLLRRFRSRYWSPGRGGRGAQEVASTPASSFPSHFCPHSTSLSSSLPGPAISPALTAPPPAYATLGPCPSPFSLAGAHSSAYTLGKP
T1 sequence (Q95165 1-641): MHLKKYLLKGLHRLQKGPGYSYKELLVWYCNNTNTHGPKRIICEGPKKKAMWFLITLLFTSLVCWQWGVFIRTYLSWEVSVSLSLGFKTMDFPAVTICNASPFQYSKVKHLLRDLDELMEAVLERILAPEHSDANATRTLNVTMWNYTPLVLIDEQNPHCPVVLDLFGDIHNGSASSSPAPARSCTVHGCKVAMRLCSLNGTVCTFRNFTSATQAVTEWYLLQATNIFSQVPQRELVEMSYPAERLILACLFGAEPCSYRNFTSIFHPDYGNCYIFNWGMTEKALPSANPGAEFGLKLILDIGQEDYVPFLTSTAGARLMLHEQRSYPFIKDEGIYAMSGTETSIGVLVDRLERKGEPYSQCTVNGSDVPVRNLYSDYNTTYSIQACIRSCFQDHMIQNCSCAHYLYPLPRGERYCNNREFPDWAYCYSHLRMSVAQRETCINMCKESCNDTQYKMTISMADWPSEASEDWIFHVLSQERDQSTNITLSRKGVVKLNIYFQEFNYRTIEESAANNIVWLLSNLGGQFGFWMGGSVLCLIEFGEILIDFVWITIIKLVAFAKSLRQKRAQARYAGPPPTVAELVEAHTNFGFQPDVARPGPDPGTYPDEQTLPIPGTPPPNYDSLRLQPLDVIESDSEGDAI
T1 sequence (A0A8I3MKE6 1-646): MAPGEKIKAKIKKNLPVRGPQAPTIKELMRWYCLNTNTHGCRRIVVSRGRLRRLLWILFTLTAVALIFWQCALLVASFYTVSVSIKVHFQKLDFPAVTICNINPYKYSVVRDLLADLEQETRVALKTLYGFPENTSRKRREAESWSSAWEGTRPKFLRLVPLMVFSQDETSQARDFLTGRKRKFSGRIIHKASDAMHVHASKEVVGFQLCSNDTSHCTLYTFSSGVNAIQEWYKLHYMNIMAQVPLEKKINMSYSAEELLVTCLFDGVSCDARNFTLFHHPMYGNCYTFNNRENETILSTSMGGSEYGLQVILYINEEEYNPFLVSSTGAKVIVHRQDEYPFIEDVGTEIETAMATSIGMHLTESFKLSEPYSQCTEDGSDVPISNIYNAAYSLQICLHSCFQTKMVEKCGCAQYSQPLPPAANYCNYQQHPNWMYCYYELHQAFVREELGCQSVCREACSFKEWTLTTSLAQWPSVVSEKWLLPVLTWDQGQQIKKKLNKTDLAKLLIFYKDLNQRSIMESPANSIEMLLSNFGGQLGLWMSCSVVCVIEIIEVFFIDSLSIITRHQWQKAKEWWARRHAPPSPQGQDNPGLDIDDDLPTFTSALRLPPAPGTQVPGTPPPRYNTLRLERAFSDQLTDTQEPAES
Description: One assay used to assess mechanism of action and/or potency of the compounds of the present invention involves the determination of luminal drug inhibition of airway epithelial sodium currents measured under short circuit current (ISC) using airway epithelial monolayers mounted in Ussing chambers. Cells are obtained from freshly excised human, canine, sheep or rodent airways.
Inhibition of transcellular sodium movement through ENaC was measured using polarized bronchial epithelial cell monolayers mounted in a modified Ussing chamber. Primary cultures of canine or human bronchial epithelial cells grown using an air-liquid interface were tested under voltage clamp conditions. The short-circuit current (ISC) was measured as an index of transepithelial sodium transport to assess potency.
Recovery of short circuit current (ISC) from maximal block was used as an indirect measurement of drug off-rate.

Muc5B = Muc5B (Homo sapiens, UniProt Q9HC84); conditions: in vitro; cited from earlier work

Structure (SMILES)	IC50 (ENaC) [nM]	concentration required to fully reduce Muc5B (Muc5B) [mM]
N=C(NCCCCc1ccc(CCCN(CCCc2ccccc2)C[C@H](O)[C@@H](O)[C@H](O)[C@H](O)CO)cc1)NC(=O)c1nc(Cl)c(N)nc1N [Compound 40, 3,5-diamino-6-chloro-N—(N-(4-(4-(3-(((2S,3R,4R,5R)-2,3,4,5,6-pentahydroxyhexyl)(3-phenylpropyl)amino)propyl)phenyl)butyl)carbamimidoyl)pyrazine-2-carboxamide]	11.8 ± 8.2	–
CC(=O)N[C@@H](CS)C(=O)O [NAC, N-acetyl cysteine]	–	200
N=C(NCCCCc1ccc(OCCN(CCCc2cccc3ccccc23)C[C@H](O)[C@@H](O)[C@H](O)[C@H](O)CO)cc1)NC(=O)c1nc(Cl)c(N)nc1N [Compound 27, 3,5-diamino-6-chloro-N—(N-(4-(4-(2-((3-(naphthalen-1-yl)propyl)((2S,3R,4R,5R)-2,3,4,5,6-pentahydroxyhexyl)amino)ethoxy)phenyl)butyl)carbamimidoyl)pyrazine-2-carboxamide]	5.9 ± 4.8	–
N=C(NCCCCc1ccc(OCCN(CCCc2ccc3ccccc3c2)C[C@H](O)[C@@H](O)[C@H](O)[C@H](O)CO)cc1)NC(=O)c1nc(Cl)c(N)nc1N [Compound 17, 3,5-diamino-6-chloro-N—(N-(4-(4-(2-((3-(naphthalen-2-yl)propyl)((2S,3R,4R,5R)-2,3,4,5,6-pentahydroxyhexyl)amino)ethoxy)phenyl)butyl)carbamimidoyl)pyrazine-2-carboxamide]	5.6 ± 9	–
N=C(NCCCCc1ccc(OCCN(CCCc2ccccc2)C[C@H](O)[C@@H](O)[C@H](O)[C@H](O)CO)cc1)NC(=O)c1nc(Cl)c(N)nc1N [Compound 12, 3,5-diamino-6-chloro-N—(N-(4-(4-(2-(((2S,3R,4R,5R)-2,3,4,5,6-pentahydroxyhexyl)(3-phenylpropyl)amino)ethoxy)phenyl)butyl)carbamimidoyl)pyrazine-2-carboxamide]	6.6 ± 7	–
